PMC6753110, “Fragment-based discovery of the first nonpeptidyl inhibitor of an S46 family peptidase” (Scientific Reports, 2019)
“And” between values parts separate entries of the source, which are not always exact repeats. Identical values can stand only once. Like-named read-outs stand apart in the source and are kept apart here.

Key:
E. coli strain K12 = assay: Antibacterial assay, growth of E. coli (OD 600 nm); type: cell-based; conditions: at the concentrations used for the inhibition of P. gingivalis growth
Experimental: (§1) The inhibitory effects of SH-5 and the lipophilic analog NPPB against growth of P. gingivalis strain W83 were evaluated by monitoring optical density at 600 nm (Fig. 6, closed squares). […] The maximal percent inhibition values for SH-5 and NPPB were 68% at 1 mM and 99% at 100 μM, respectively.
(§2) Antibacterial assays against P. gingivalis strain W83 and E. coli strain K12 were performed as previously described[62],[63]. P. gingivalis cells were cultured in anaerobic bacterium culture medium (ABCM, Eiken Chemical, Tokyo, Japan) containing 0.001% menadione under anaerobic conditions at 37 °C for 48 h. E. coli cells were grown in M9 medium with 1% glucose with shaking at 37 °C for 24 h. All compounds were dissolved in DMSO at stock concentrations of 100 mM. […] Growth of P. gingivalis and E. coli with compounds was determined as the optical density at 600 nm after incubation.

ClC-ec1 = test system: ClC-ec1; parameters: method as in PMID 23177200; conditions: cited from earlier work
ClC-6 = test system: ClC-6; parameters: method as in ref [3] of Table S1; conditions: Human, UniProt P51797; ref [3] of Table S1; cited from earlier work
P. gingivalis strain W83 = assay: Antibacterial assay, growth of P. gingivalis (OD 600 nm); type: cell-based; conditions: Porphyromonas gingivalis; for IC50: strain W83, optical density at 600 nm, 48 h anaerobic, read-out: IC50, inhibition of growth of P. gingivalis
Experimental: as §1, §2

BEST-1 = test system: BEST-1; parameters: method as in ref [7] of Table S1; conditions: Mouse, UniProt O88870; ref [7] of Table S1; cited from earlier work
ClC-5 = test system: ClC-5; parameters: method as in ref [2] of Table S1; conditions: Mouse, UniProt Q9WVD4; ref [2] of Table S1; cited from earlier work
ANO-2 = test system: ANO-2; parameters: method as in ref [6] of Table S1; conditions: Mouse, UniProt Q8CFW1; ref [6] of Table S1; cited from earlier work
ANO-1 = test system: ANO-1; parameters: method as in ref [5] of Table S1; conditions: Mouse, UniProt Q8BHY3; ref [5] of Table S1; cited from earlier work
PgDPP11 = molecular target: T1, PgDPP11 (Porphyromonas gingivalis, UniProt B2RID1); assay: Inhibition of PgDPP11 enzymatic activity on Leu-Asp-MCA; type: biochemical; conditions: for Ki: Cheng-Prusoff equation; for remaining activity at 100 µM: inhibitor and synthetic substrate (Leu-Asp-MCA) 100 µM, 100% = activity without inhibitor, read-out: Residual activity (%)
T1 construct: signal peptide of DAP BIII (Pseudoxanthomonas mexicana WO24) (N, cleaved yes); made in house; host or cells: E. coli BL21 Gold(DE3), pET22b
T1 sequence (B2RID1 22-720): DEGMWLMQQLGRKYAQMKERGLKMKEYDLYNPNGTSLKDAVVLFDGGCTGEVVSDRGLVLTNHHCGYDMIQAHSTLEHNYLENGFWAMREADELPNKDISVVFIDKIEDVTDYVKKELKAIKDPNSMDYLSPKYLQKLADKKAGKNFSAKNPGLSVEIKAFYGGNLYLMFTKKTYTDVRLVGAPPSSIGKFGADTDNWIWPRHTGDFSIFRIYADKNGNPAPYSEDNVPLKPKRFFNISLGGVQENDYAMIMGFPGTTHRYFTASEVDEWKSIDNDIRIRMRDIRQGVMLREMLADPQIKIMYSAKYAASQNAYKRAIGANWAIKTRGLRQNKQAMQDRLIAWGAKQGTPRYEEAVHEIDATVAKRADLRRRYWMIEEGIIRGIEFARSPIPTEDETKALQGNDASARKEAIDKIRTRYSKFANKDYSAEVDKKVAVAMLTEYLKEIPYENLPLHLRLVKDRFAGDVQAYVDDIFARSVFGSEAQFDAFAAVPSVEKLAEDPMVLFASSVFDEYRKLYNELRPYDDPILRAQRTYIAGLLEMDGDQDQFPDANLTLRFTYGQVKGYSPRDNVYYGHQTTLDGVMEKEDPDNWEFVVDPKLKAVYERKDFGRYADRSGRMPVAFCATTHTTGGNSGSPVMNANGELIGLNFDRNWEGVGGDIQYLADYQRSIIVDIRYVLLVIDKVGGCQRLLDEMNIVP
Experimental: We evaluated the inhibitory effects of the 13 commercially available candidate compounds obtained by the in silico screening described above against the enzymatic activity of PgDPP11 on the synthetic substrate Leu-Asp-MCA (4-methylcoumaryl-7-amide) (Fig. 5). Each compound was first tested at a concentration of 100 μM.
Figure 5 Inhibitory effects of 13 candidate compounds obtained by multifilter in silico screening. […] Standard deviations were obtained from three independent experiments.
(§3) Thirteen of fifteen final candidate compounds from the in silico screening described above were purchased from Namiki Shoji Co., Ltd. (Tokyo, Japan). Half-maximal inhibitory concentration (IC50) values were determined by fitting to a sigmoidal curve (4-parameter logistic curve) using ImageJ[60] Competitive inhibition rates were measured using different concentrations of each inhibitor in a reaction buffer containing 50 mM sodium phosphate buffer (pH 8.0), 5 mM EDTA and 0.005% Tween 20 at 298 K for 20 min and using 100 µM Leu-Asp-MCA (4-methylcoumaryl-7-amide) as the substrate for DPP11s. For DPP7s, 100 µM Met-Leu-MCA was used as the substrate. The concentrations of PgDPP11, PgDPP7, SmDPP11 and SmDPP7 were 1, 10, 0.5 and 5 nM, respectively. The inhibitor concentrations were 1000, 500, 250, 125, 62.5, 31.3 and 15.6 µM. Standard deviations were calculated from three independent experiments. Fluorescence intensity was measured with excitation at 355 nm and emission at 460 nm using an Infinite 200 PRO microplate reader. Inhibition constants (Ki) were calculated using the Cheng-Prusoff equation[61].

PgDPP7 = PgDPP7 (Porphyromonas gingivalis, UniProt Q7MWU6); assay: Inhibition of PgDPP7 enzymatic activity on Met-Leu-MCA; type: biochemical; conditions: for remaining activity at 100 µM: read-out: Residual activity (%)
PgDPP7, sequence (Q7MWU6 entry or part of it): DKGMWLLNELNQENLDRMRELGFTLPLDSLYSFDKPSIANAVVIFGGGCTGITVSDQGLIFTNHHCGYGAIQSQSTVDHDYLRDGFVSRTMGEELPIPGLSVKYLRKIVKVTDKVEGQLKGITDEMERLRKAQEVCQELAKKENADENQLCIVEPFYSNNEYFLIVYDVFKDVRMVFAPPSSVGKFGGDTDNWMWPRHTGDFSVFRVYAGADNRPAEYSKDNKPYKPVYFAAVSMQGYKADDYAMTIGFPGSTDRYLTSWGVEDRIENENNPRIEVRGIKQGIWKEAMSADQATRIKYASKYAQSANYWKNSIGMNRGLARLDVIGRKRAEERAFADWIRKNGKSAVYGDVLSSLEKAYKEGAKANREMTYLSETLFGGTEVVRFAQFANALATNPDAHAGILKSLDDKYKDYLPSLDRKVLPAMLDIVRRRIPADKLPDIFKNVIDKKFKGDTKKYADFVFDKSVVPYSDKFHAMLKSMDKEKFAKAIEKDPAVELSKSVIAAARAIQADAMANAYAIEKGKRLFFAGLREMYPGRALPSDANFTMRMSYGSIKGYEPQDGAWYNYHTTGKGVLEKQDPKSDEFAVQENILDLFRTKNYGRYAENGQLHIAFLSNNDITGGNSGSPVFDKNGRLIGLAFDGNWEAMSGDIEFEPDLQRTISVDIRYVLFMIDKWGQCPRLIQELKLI
Source text: (§4) To examine whether SH-5 is a universal inhibitor of S46 peptidases or is specific for PgDPP11, we evaluated the inhibitory effects of SH-5 against PgDPP7. In addition, the inhibitory effects of SH-5 against DPP7 and DPP11 from Stenotrophomonas maltophilia (SmDPP7 and SmDPP11, respectively) were also examined as another reference set of S46 peptidases in the same organism.
as §3

SmDPP7 = SmDPP7 (Stenotrophomonas maltophilia, UniProt B4SLK2); assay: Inhibition of SmDPP7 enzymatic activity on Met-Leu-MCA; type: biochemical; conditions: for remaining activity at 100 µM: read-out: Residual activity (%)
SmDPP7, sequence (B4SLK2 entry or part of it): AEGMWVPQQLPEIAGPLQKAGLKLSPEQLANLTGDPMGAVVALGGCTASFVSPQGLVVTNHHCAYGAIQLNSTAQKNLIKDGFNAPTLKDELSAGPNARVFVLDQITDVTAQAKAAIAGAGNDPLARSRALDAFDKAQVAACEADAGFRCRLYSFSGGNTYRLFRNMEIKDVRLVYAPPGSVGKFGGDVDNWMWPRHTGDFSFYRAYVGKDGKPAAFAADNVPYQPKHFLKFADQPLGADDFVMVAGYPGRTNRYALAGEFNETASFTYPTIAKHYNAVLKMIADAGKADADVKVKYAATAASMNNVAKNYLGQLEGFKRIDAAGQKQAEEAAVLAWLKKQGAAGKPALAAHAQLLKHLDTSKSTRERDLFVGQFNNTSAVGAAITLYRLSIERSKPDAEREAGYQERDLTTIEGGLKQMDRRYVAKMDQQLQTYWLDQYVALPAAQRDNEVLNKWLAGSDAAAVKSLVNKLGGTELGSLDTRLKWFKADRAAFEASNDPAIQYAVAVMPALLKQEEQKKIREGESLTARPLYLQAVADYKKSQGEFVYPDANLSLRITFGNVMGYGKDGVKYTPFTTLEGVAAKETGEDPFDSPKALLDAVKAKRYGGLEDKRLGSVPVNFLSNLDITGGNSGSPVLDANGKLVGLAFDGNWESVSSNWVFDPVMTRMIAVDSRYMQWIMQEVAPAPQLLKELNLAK
Source text: as §4, §3

SmDPP11 = SmDPP11 (Stenotrophomonas maltophilia, UniProt B4SNQ8); assay: Inhibition of SmDPP11 enzymatic activity on Leu-Asp-MCA; type: biochemical; conditions: for Ki / remaining activity at 100 µM: SmDPP11; for Ki: Cheng-Prusoff equation, 100 µM Leu-Asp-MCA; for remaining activity at 100 µM: inhibitor and synthetic substrate (Leu-Asp-MCA) 100 µM, 100% = activity without inhibitor, read-out: Residual activity (%)
SmDPP11, sequence (B4SNQ8 24-715 limits assumed): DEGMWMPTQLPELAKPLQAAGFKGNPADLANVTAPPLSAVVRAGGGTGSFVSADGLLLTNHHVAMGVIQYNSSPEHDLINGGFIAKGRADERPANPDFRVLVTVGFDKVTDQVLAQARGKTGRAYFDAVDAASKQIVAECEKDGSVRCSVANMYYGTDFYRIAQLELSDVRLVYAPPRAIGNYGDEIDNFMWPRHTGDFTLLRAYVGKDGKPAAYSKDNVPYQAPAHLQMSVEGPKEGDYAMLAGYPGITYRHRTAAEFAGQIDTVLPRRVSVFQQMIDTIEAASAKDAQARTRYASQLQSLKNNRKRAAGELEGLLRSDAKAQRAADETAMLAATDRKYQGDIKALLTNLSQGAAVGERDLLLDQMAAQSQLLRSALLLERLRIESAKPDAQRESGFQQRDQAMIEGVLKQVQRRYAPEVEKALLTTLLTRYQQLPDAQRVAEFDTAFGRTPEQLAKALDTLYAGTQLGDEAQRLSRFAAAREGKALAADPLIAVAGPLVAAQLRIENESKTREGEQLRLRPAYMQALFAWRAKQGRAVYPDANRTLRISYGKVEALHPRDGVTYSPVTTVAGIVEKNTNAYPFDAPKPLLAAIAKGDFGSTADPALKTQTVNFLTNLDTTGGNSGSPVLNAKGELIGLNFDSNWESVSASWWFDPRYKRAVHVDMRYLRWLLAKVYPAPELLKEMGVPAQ
Source text: as §4, §3

ClC-7 = test system: ClC-7; parameters: method as in ref [4] of Table S1; conditions: Human, UniProt P51798; ref [4] of Table S1; cited from earlier work
CFTR = test system: CFTR; parameters: method as in ref [8] of Table S1; conditions: Xenopus, UniProt P26363; ref [8] of Table S1; cited from earlier work
ClC-2 = test system: ClC-2; parameters: method as in ref [1] of Table S1; conditions: Rat, UniProt P35525; ref [1] of Table S1; cited from earlier work

| Structure (SMILES) | toxicity toward E. coli (growth) (E. coli strain K12) | IC50 (P. gingivalis strain W83) [µM] | inhibitory effect against PgDPP11 (in words) (PgDPP11) | Ki (PgDPP11; PgDPP11, 100 µM Leu-Asp-MCA) | remaining activity at 100 µM (PgDPP11; PgDPP11) [%] | inhibitory effect against PgDPP7 (in words) (PgDPP7) | inhibitory effect against SmDPP7 (in words) (SmDPP7) | inhibitory effect against SmDPP11 (in words) (SmDPP11) | Ki (SmDPP11) [µM] | remaining activity at 100 µM (SmDPP11) [%] | further results |
| --- | --- | --- | --- | --- | --- | --- | --- | --- | --- | --- | --- |
| O=C(O)c1cc([N+](=O)[O-])ccc1NCCCc1ccccc1 [NPPB, 5-nitro-2-(3-phenylpropylamino)benzoic acid] | not toxic | 6 | significant inhibitory effects | ~15 µM and 15 µM | 70.3 ± 0.7 | inactive | inactive | significant inhibitory effects | 84.8 ± 3.1 | 67.7 ± 0.6 | inhibition of ClC-ec1 protein (ClC-ec1): not be inhibited; inhibition of ClC-6 (ClC-6): inhibited; inhibition at 100 µM (P. gingivalis strain W83; P. gingivalis W83, at 100 μM, read-out: maximal percent inhibition of growth): 99%; inhibition of BEST-1 (BEST-1): inhibited; inhibition of ClC-5 (ClC-5): inhibited; inhibition of ANO-2 (ANO-2): inhibited; inhibition of ANO-1 (ANO-1): inhibited; remaining activity at 100 µM (PgDPP7): 159 ± 5%; remaining activity at 100 µM (SmDPP7): 119 ± 0.3%; inhibition of ClC-7 (ClC-7): inhibited; inhibition of CFTR (CFTR): inhibited; inhibition of ClC-2 (ClC-2): inhibited |
| NCCNc1ccc([N+](=O)[O-])cc1C(=O)O [SH-5, 2-[(2-aminoethyl)amino]-5-nitrobenzoic acid] | not toxic | 687 | significant inhibitory effects | ~8.45 µM and 8.45 µM | 62.9 ± 0.1 | significant inhibitory effects | significant inhibitory effects | significant inhibitory effects | 24.9 ± 0.5 | 48 ± 1.1 | inhibition at 1000 µM (P. gingivalis strain W83; P. gingivalis W83, at 1 mM, read-out: maximal percent inhibition of growth): 68%; inhibition at 100 µM (PgDPP11; compound tested at 100 μM, substrate Leu-Asp-MCA, read-out: inhibitory effect against PgDPP11): > 30%; ligand efficiency (LE) (PgDPP11; roughly calculated as LE = 1.37pIC50/HA): 0.346; Ki (PgDPP7; PgDPP7, Cheng-Prusoff equation, 100 µM Met-Leu-MCA): 52.2 ± 3.3 µM; remaining activity at 100 µM (PgDPP7; PgDPP7, inhibitor and synthetic substrate (Met-Leu-MCA) 100 µM, 100% = activity without inhibitor): 54.4 ± 0.7%; Ki (SmDPP7; SmDPP7, Cheng-Prusoff equation, 100 µM Met-Leu-MCA): 36.6 ± 1.3 µM; remaining activity at 100 µM (SmDPP7; SmDPP7, inhibitor and synthetic substrate (Met-Leu-MCA) 100 µM, 100% = activity without inhibitor): 72.8 ± 0.7% |
| NC(=O)c1ccc(SCC(=O)O)c([N+](=O)[O-])c1 [SH-5_3, 2-(4-carbamoyl-2-nitrophenyl)sulfanylacetic acid] | – | – | significant but relatively weak inhibitory effect | – | – | – | – | – | – | – | IC50 (PgDPP11; PgDPP11, dose-response 15.6-1000 μM, 100 µM Leu-Asp-MCA): ~1.07 mM |
